Assay results from publication PMC4965013, “Open Source Drug Discovery with the Malaria Box Compound Collection for Neglected Diseases and Beyond” (PLoS Pathogens, 2016).

What was measured:
[1] = test system: P. falciparum 3D7 trophozoites; assay: Metabolomic fingerprint profiling LC-MS; format: cell-based, Plasmodium falciparum; parameters: UDP-D-glucose / ADP-D-glucose: unit not given here; conditions: for Acetyllysine / N-acetyl-L-ornithine / N-carbamoyl-L-aspartate / NADPH / dAMP / dCMP / dTDP / dTMP / dTTP / dihydroorotate / orotate / DLH / DLS/SDL/SID / PD / PEE / PVNF / 3-phosphoglycerate / ADP-D-glucose / ATP / CDP / D-sedoheptulose-1/7-phosphate / FAD / GMP / NAD+ / NADP+ / Octoluse Bisphosphate / Pyroglutamic acid / UDP-D-glucose / UDP-D-glucuronate / UDP-N-acetyl-glucosamine / UDP / UMP / UTP / a-ketoglutarate / citrate/isocitrate / cytidine / dATP / dGMP/AMP / fumarate / glucose-1/6-phosphate / glycerate / guanine / guanosine / hypoxanthine / indole / inosine / nicotinate / ornithine / phosphoenolpyruvate / pyruvate / ribose-phosphate / sarcosine/alanine / sn-glycerol-3-phosphate / succinate/methylmalonic acid / uridine / xanthosine: S2 Table Metabolomics; for Acetyllysine: metabolite Acetyllysine; for N-acetyl-L-ornithine: metabolite N-acetyl-L-ornithine; for N-carbamoyl-L-aspartate: metabolite N-carbamoyl-L-aspartate; for NADPH: metabolite NADPH; for dAMP: metabolite dAMP; for dCMP: metabolite dCMP; for dTDP: metabolite dTDP; for dTMP: metabolite dTMP; for dTTP: metabolite dTTP; for dihydroorotate: metabolite dihydroorotate; for orotate: metabolite orotate; for DLH: peptide DLH; for DLS/SDL/SID: peptide DLS/SDL/SID; for PD: peptide PD; for PEE: peptide PEE; for PVNF: peptide PVNF; for 3-phosphoglycerate: metabolite 3-phosphoglycerate; for ADP-D-glucose: metabolite ADP-D-glucose; for ATP: metabolite ATP; for CDP: metabolite CDP; for CDP / D-sedoheptulose-1/7-phosphate / GMP / Octoluse Bisphosphate / UDP / UMP / UTP / citrate/isocitrate / dGMP/AMP / fumarate / glucose-1/6-phosphate / glycerate / guanine / guanosine / inosine / pyruvate / sarcosine/alanine / succinate/methylmalonic acid / uridine / xanthosine: change in metabolite level after compound treatment; for D-sedoheptulose-1/7-phosphate: metabolite D-sedoheptulose-1/7-phosphate; for FAD: metabolite FAD; for GMP: metabolite GMP; for NAD+: metabolite NAD+; for NADP+: metabolite NADP+; for Octoluse Bisphosphate: metabolite Octoluse Bisphosphate; for Pyroglutamic acid: metabolite Pyroglutamic acid; for UDP-D-glucose: metabolite UDP-D-glucose; for UDP-D-glucuronate: metabolite UDP-D-glucuronate; for UDP-N-acetyl-glucosamine: metabolite UDP-N-acetyl-glucosamine; for UDP: metabolite UDP; for UMP: metabolite UMP; for UTP: metabolite UTP; for a-ketoglutarate: metabolite a-ketoglutarate; for citrate/isocitrate: metabolite citrate/isocitrate; for cytidine: metabolite cytidine; for dATP: metabolite dATP; for dGMP/AMP: metabolite dGMP/AMP; for fumarate: metabolite fumarate; for glucose-1/6-phosphate: metabolite glucose-1/6-phosphate; for glycerate: metabolite glycerate; for guanine: metabolite guanine; for guanosine: metabolite guanosine; for hypoxanthine: metabolite hypoxanthine; for indole: metabolite indole; for inosine: metabolite inosine; for 2_3-Diphosphoglyceric acid / 4-phosphopantothenate / 6-phospho-D-gluconate / FMN / IMP / Pyrophosphate / Sedoheptoluse bisphosphate / cyclic-AMP / glutathione disulfide / lactate / myo-inositol: metabolite level change after treatment; for nicotinate: metabolite nicotinate; for ornithine: metabolite ornithine; for phosphoenolpyruvate: metabolite phosphoenolpyruvate; for pyruvate: metabolite pyruvate; for ribose-phosphate: metabolite ribose-phosphate; for sarcosine/alanine: metabolite sarcosine/alanine; for sn-glycerol-3-phosphate: metabolite sn-glycerol-3-phosphate; for succinate/methylmalonic acid: metabolite succinate/methylmalonic acid; for uridine: metabolite uridine; for xanthosine: metabolite xanthosine
P. falciparum = assay: EC50 listed in S2 Table Metabolomics (used to set the concentration tested); format: cell-based; conditions: Plasmodium falciparum; EC50 used for Factor_XEC50 in metabolomics; read-out: EC50_nM

COc1ccccc1CNC(=O)CCn1c(=O)[nH]c2ccsc2c1=O [MMV019066] gave an Acetyllysine [1] of 0.07735, a N-acetyl-L-ornithine [1] of -0.0529 and a N-carbamoyl-L-aspartate [1] of 0.05336. The NADPH [1] was -0.3877, the dAMP [1] was -0.3418 and the dCMP [1] was -0.4851. It also gave a dTDP [1] of 0.1634, a dTMP [1] of 0.1236 and a dTTP [1] of -0.2106. For the same molecule, the dihydroorotate [1] was 0.243, the orotate [1] was -0.2 and the DLH [1] was -0.2144. It also gave a DLS/SDL/SID [1] of -0.3411, a PD [1] of 0.09576 and a PEE [1] of 0.0022. It also gave a PVNF [1] of -0.1895, a 3-phosphoglycerate [1] of -0.09413 and an ADP-D-glucose [1] of -0.05903. It also gave an ATP [1] of -0.2412, a CDP [1] of 0.1136 and a D-sedoheptulose-1/7-phosphate [1] of 0.1088. The FAD [1] was 0.05372, the GMP [1] was 0.1058 and the “NAD+” value [1] was 0.8616. For the same molecule, the “NADP+” value [1] was -0.0134, the “Octoluse Bisphosphate” value [1] was -0.2214 and the Pyroglutamic acid [1] was -0.1934. It also gave a UDP-D-glucose [1] of 0.05907, a UDP-D-glucuronate [1] of -0.137 and a UDP-N-acetyl-glucosamine [1] of 0.07368. The UDP [1] was 0.06631, the UMP [1] was 0.4511 and the UTP [1] was -0.2134. For the same molecule, the a-ketoglutarate [1] was -0.0676, the citrate/isocitrate [1] was -0.2257 and the cytidine [1] was 0.1038. For the same molecule, the dATP [1] was -0.07834, the dGMP/AMP [1] was 0.0855 and the fumarate [1] was 1.364. It also gave a glucose-1/6-phosphate [1] of 0.5644, a glycerate [1] of -0.201 and a guanine [1] of 0.002341. For the same molecule, the guanosine [1] was -0.12, the hypoxanthine [1] was -0.07458 and the indole [1] was -0.09687. The inosine [1] was -0.05497, the 2_3-Diphosphoglyceric acid [1] was -0.2512 and the 4-phosphopantothenate [1] was -0.02128. For the same molecule, the 6-phospho-D-gluconate [1] was -0.003238, the FMN [1] was -0.1662 and the IMP [1] was 0.2187. The Pyrophosphate [1] was -0.2235, the Sedoheptoluse bisphosphate [1] was -0.07937 and the cyclic-AMP [1] was -0.08199. The glutathione disulfide [1] was 0.08045, the lactate [1] was -0.3675 and the myo-inositol [1] was -0.05445. For the same molecule, the nicotinate [1] was -0.03534, the ornithine [1] was 0.2934 and the phosphoenolpyruvate [1] was -0.1195. The pyruvate [1] was -0.02123, the ribose-phosphate [1] was -0.1454 and the sarcosine/alanine [1] was 0.007595. For the same molecule, the sn-glycerol-3-phosphate [1] was -0.1485, the succinate/methylmalonic acid [1] was 0.2071 and the uridine [1] was 0.04529. It also gave a xanthosine [1] of -0.08771 and an EC50 (P. falciparum) of 0.14 µM.
In the case of O=[N+]([O-])c1ccc(C=NNc2nc3ccccc3[nH]2)cc1 [MMV666607], the Acetyllysine [1] is reported as -1.035, the N-acetyl-L-ornithine [1] is reported as -1.151 and the N-carbamoyl-L-aspartate [1] is reported as 0.2298. For the same molecule, the NADPH [1] was 4.216, the dAMP [1] was 0.3403 and the dCMP [1] was 0.1583. The dTDP [1] was 0.005163, the dTMP [1] was -0.3628 and the dTTP [1] was 0.4469. It also gave a dihydroorotate [1] of 0.1326, an orotate [1] of 0.05442 and a DLH [1] of -0.8554. It also gave a DLS/SDL/SID [1] of -0.615, a PD [1] of -0.4537 and a PEE [1] of -0.9074. It also gave a PVNF [1] of -1.15, a 3-phosphoglycerate [1] of 0.2233 and an ADP-D-glucose [1] of 0.2125. For the same molecule, the ATP [1] was 0.06188, the CDP [1] was -0.1249 and the D-sedoheptulose-1/7-phosphate [1] was -0.1388. For the same molecule, the FAD [1] was -0.1276, the GMP [1] was -0.06014 and the “NAD+” value [1] was -0.1512. For the same molecule, the “NADP+” value [1] was 0.1119, the “Octoluse Bisphosphate” value [1] was -0.09651 and the Pyroglutamic acid [1] was -0.1918. The UDP-D-glucose [1] was -0.06053, the UDP-D-glucuronate [1] was -0.006477 and the UDP-N-acetyl-glucosamine [1] was -0.08493. It also gave a UDP [1] of -0.2957, a UMP [1] of -0.07591 and a UTP [1] of 0.3053. The a-ketoglutarate [1] was -0.2127, the citrate/isocitrate [1] was -0.1765 and the cytidine [1] was -0.4158. For the same molecule, the dATP [1] was 0.1896, the dGMP/AMP [1] was 0.09335 and the fumarate [1] was 0.008021. For the same molecule, the glucose-1/6-phosphate [1] was -0.3879, the glycerate [1] was -0.4956 and the guanine [1] was -0.1214. The guanosine [1] was 0.1402, the hypoxanthine [1] was -0.3554 and the indole [1] was -0.1954. For the same molecule, the inosine [1] was -0.3969, the 2_3-Diphosphoglyceric acid [1] was 0.1914 and the 4-phosphopantothenate [1] was 0.07423. For the same molecule, the 6-phospho-D-gluconate [1] was 0.02335, the FMN [1] was -0.06375 and the IMP [1] was 0.01329. For the same molecule, the Pyrophosphate [1] was 0.2379, the Sedoheptoluse bisphosphate [1] was 0.02366 and the cyclic-AMP [1] was 0.0305. It also gave a glutathione disulfide [1] of 0.01063, a lactate [1] of -0.3072 and a myo-inositol [1] of -0.4133. For the same molecule, the nicotinate [1] was 0.09712, the ornithine [1] was -0.3198 and the phosphoenolpyruvate [1] was 0.2853. It also gave a pyruvate [1] of -0.3236, a ribose-phosphate [1] of 0.1666 and a sarcosine/alanine [1] of -0.06565. For the same molecule, the sn-glycerol-3-phosphate [1] was -0.0116, the succinate/methylmalonic acid [1] was 0.01013 and the uridine [1] was -0.4646. For the same molecule, the xanthosine [1] was 0.06506 and the EC50 (P. falciparum) was 0.142 µM.
With COc1ccccc1CNC(=O)CCn1c(=O)[nH]c2ccccc2c1=O [MMV665916] the Acetyllysine [1] was 0.3638, the N-acetyl-L-ornithine [1] was 0.3943 and the N-carbamoyl-L-aspartate [1] was -0.2097. The NADPH [1] was -0.7222, the dAMP [1] was 0.5335 and the dCMP [1] was -0.1283. The dTDP [1] was 0.2837, the dTMP [1] was 0.1911 and the dTTP [1] was 0.1028. The dihydroorotate [1] was 0.195, the orotate [1] was 0.1648 and the DLH [1] was -0.3906. It also gave a DLS/SDL/SID [1] of -0.1223, a PD [1] of 0.1255 and a PEE [1] of 0.2968. It also gave a PVNF [1] of -0.3118, a 3-phosphoglycerate [1] of 0.2339 and an ADP-D-glucose [1] of 0.1724. For the same molecule, the ATP [1] was 0.1531, the CDP [1] was 0.2423 and the D-sedoheptulose-1/7-phosphate [1] was 0.1783. The FAD [1] was 0.06654, the GMP [1] was -0.759 and the “NAD+” value [1] was 0.08579. For the same molecule, the “NADP+” value [1] was 0.1944, the “Octoluse Bisphosphate” value [1] was 0.5392 and the Pyroglutamic acid [1] was -0.1569. It also gave a UDP-D-glucose [1] of 0.1671, a UDP-D-glucuronate [1] of 0.1875 and a UDP-N-acetyl-glucosamine [1] of 0.2144. It also gave a UDP [1] of 0.1783, a UMP [1] of -0.6315 and a UTP [1] of 0.2956. For the same molecule, the a-ketoglutarate [1] was -0.329, the citrate/isocitrate [1] was -0.5155 and the cytidine [1] was -0.1275. It also gave a dATP [1] of 0.146, a dGMP/AMP [1] of 0.3579 and a fumarate [1] of -0.07198. The glucose-1/6-phosphate [1] was -0.1463, the glycerate [1] was 0.2881 and the guanine [1] was -0.1565. It also gave a guanosine [1] of -0.3335, a hypoxanthine [1] of -0.2904 and an indole [1] of -0.1941. For the same molecule, the inosine [1] was -0.04044, the 2_3-Diphosphoglyceric acid [1] was 0.5062 and the 4-phosphopantothenate [1] was 0.1361. The 6-phospho-D-gluconate [1] was 0.2552, the FMN [1] was 0.1915 and the IMP [1] was 0.3796. The Pyrophosphate [1] was 0.2568, the Sedoheptoluse bisphosphate [1] was 0.5745 and the cyclic-AMP [1] was 0.1551. The glutathione disulfide [1] was 0.2989, the lactate [1] was -0.2145 and the myo-inositol [1] was 0.9008. For the same molecule, the nicotinate [1] was -0.1745, the ornithine [1] was 0.1369 and the phosphoenolpyruvate [1] was 0.02242. For the same molecule, the pyruvate [1] was -0.2103, the ribose-phosphate [1] was -0.4062 and the sarcosine/alanine [1] was 0.2908. For the same molecule, the sn-glycerol-3-phosphate [1] was -0.1634, the succinate/methylmalonic acid [1] was -0.1615 and the uridine [1] was -0.1737. The xanthosine [1] was -0.4685 and the EC50 (P. falciparum) was 0.0726 µM.
